Measured values: US11685716B2, “Plant growth inhibiting agent, and plant growth inhibiting method using same” (NATIONAL UNIVERSITY CORPORATION KUMAMOTO UNIVERSITY, priority 2017, dated 2023)
*1 amine or outer side, *2 acyl side, *3 side chain or, on linkers, in order; H or OH if unused. Where a SMILES comes first, the peptide text is derived from it. Bridges are numbered along the chain shown (N, C = ends). Roman numbers before positions name the chains, in order. [ ]: non-standard residue; d: D form. Actinocin(9to1) = Cc1c2oc3c(C)ccc(C(=O)[*:1])c3nc-2c(C(=O)[*:2])c(N)c1=O; NMeV = CN[C@H](C(=O)O)C(C)C; Sar = CNCC(=O)O

Columns and labels:
HeLa cell [1] = experiment: Cytotoxicity on human cultured cancer cells, relative survival rate (Evaluation 7); type: cell-based; details: control
Protocol: HeLa cells were cultured in a 96-well plate using Dulbecco's Modified Eagle's Medium (DHEM) under the culture conditions of 5% carbon dioxide and at 37° C. The compound (8b) (final concentration 50 μM), the compound (8f) (final concentration 50 μM), DMSO (final concentration 0.25%), Actinomycin D (final concentration 5 μg/ml) or Nocodazole (final concentration 100 ng/ml) was added 0 (48-hr compound treated sample), 12 (36-hr compound treated sample), 24 (24-hr compound treated sample), 36 (12-hr compound treated sample), and 48 (0-hr compound treated sample) hours after the culture was started. All of the samples were measured for living cell counts 48 hours after the culture was started with a cell counting kit (DOJINDO LABORATORIES), and a measured value of each-time compound treated-sample was divided by the measured value of 0-time compound treated sample to calculate a relative survival rate.
In addition, a transcription inhibitor Actinomycin D and a tubulin polymerization inhibitor Nocodazole were used as controls of the compounds which had cytotoxicity (induces apoptosis). DMSO is a solvent in which the compound (8b) or the compound (8f) was dissolved, and used as a control to observe the affect of the solvent on the cells.

thale cress = experiment: Activities on plants: growth of thale cress on agar medium (Evaluation 1, 6); type: in vivo, thale cress (Col-0, wild-type strain); details: for plant growth inhibition effect (activity on plant growth) / twisting of root epidermal cells / abnormality in direction of root growth: thale cress Col-0, agar medium, 7 days; for twisting of root epidermal cells / abnormality in direction of root growth: scanned images
Protocol: The test compound (compound (6a)) and DMSO for a control experiment, were added at this stage and blended. Fifty ml each of the medium was dispensed in sterile No. 2 square petri dishes (Eiken Chemical Co., Ltd.) to prepare agar medium. As a plant material, Col-0, which is a wild-type strain of […] used. Seeds, after their surfaces were sterilized, were planted on the agar medium, and vernalized at 4° C. for 16 hours. Growth of the plant was carried out in a growth chamber (SANYO MLR-351) under the conditions of an illuminance of 3 at 23° C. with constant light. The agar medium was allowed to stand upright in the chamber to grow the plant for 7 days. Lids of the petri dishes used for the test were opened, the test results were recorded with a scanner, and with the scanned images, […]

E. coli (DH5a strain) = experiment: E. coli growth inhibiting activity (Evaluation 5); type: cell-based
Protocol: The compound (6a) or the compound (7) (final concentration 10 μM or 100 μM), 50% ethanol (final concentration 0.05% or 0.5%), or ampicillin (final concentration 50 μg/ml) was added to LB medium in which E. coli (DH5a strain) was added to carry out shaking culture at 37° C. One, 2, 4, and 6 hours after the culture was started, turbidity (OD600) of the culture medium was measured with a spectrophotometer to analyze the affect of the compound (6a) or the compound (7), 50% ethanol, ampicillin on the growth of E. coli cells.
In addition, ampicillin was used as a control of the compound which inhibits the growth.

[2] = test system: Schizosaccharomyces pombe (wild-type strain 972); experiment: Growth inhibiting activity on Schizosaccharomyces pombe (Evaluation 3); type: cell-based; details: final concentration 100 μM, up to 30 hours
Protocol: The compound (6a) or the compound (7) (final concentration 100 μM) or 50% ethanol (final concentration 0.5%) was added to YE medium in which Schizosaccharomyces pombe (wild-type strain 972) was inoculated to carry out shaking culture at 30° C. Six, 12, 18, 24, and 30 hours after the culture was started, turbidity (OD600) of the culture medium was measured with a spectrophotometer to analyze the affect of the compound (6a) or the compound (7), or 50% ethanol on the growth of the Schizosaccharomyces pombe cells.

HeLa cell [3] = experiment: Cell proliferation inhibiting activity on human cultured cancer cells (Evaluation 2); type: cell-based; details: 32 hours; for effect on growth rate of HeLa cells (living cell counts): final concentration 200 μM
Protocol: Every 8 hours after the culture was started, living cell counts were measured with a cell counting kit (DOJINDO LABORATORIES). In addition, staurosporine was used as a control of the compound which inhibits the cell proliferation.

[4] = test system: Saccharomyces cerevisiae (BY4741 strain); experiment: Growth inhibiting activity on Saccharomyces cerevisiae (Evaluation 4); type: cell-based; details: final concentration 10 μM or 100 μM, up to 24 hours
Protocol: The compound (6a) or the compound (7) (final concentration 10 μM or 100 μM), or 50% ethanol (final concentration 0.05% or 0.5%) was added to YPD medium in which Saccharomyces cerevisiae (BY4741 strain) was inoculated to carry out shaking culture at 30° C. Four, 8, 16, and 24 hours after the culture was started, turbidity (OD600) of the culture medium was measured with a spectrophotometer to analyze the affect of the compound (6a) or the compound (7), or 50% ethanol on the growth of the […] cells.

[5] = final concentration 10 μM or 100 μM, up to 6 hours
[6] = thale cress Col-0, concentration of 1000 μM

Structure (SMILES): Cc1c2oc3c(C)ccc(C(=O)N[C@@H]4C(=O)N[C@H](C(C)C)C(=O)N5CCC[C@H]5C(=O)N(C)CC(=O)N(C)[C@@H](C(C)C)C(=O)O[C@@H]4C)c3nc-2c(C(=O)N[C@@H]2C(=O)N[C@H](C(C)C)C(=O)N3CCC[C@H]3C(=O)N(C)CC(=O)N(C)[C@@H](C(C)C)C(=O)O[C@@H]2C)c(N)c1=O [Actinomycin D] (I: T[dV]P[Sar][NMeV] / II: T[dV]P[Sar][NMeV]; ester I:1-I:C, II:1-II:C; linker I:N-II:N via Actinocin(9to1))
- viability of HeLa cells (relative survival rate) (HeLa cell [1]; final concentration 5 μg/ml): induced apoptosis

Structure (SMILES): COn1cccc1C(=O)O [Compound 6a, 1-Methoxy-1H-pyrrole-2-carboxylic acid]
- plant growth inhibition effect (activity on plant growth) (thale cress): plant growth inhibition was significantly observed
- twisting of root epidermal cells / abnormality in direction of root growth (thale cress): epidermal cells of the roots were twisted leftward and abnormality in a direction of root growth was observed
- root epidermal cells, observation by stereomicroscope (thale cress; thale cress Col-0, compound added, FIG. 2): epidermal cells of the roots were observed to have been twisted leftward
- E. coli growth (OD600) (E. coli (DH5a strain); [5]): neither the compound (6a) nor the compound (7) inhibits the E. coli growth
- growth of Schizosaccharomyces pombe (OD600) [2]: neither the compound (6a) nor the compound (7) inhibits the growth
- effect on growth rate of HeLa cells (living cell counts) (HeLa cell [3]): no affect at all
- growth of Saccharomyces cerevisiae (OD600) [4]: neither the compound (6a) nor the compound (7) inhibits the growth

Structure (SMILES): CCCOn1cccc1C(=O)O [Compound 6d, 1-Propoxy-1H-pyrrole-2-carboxylic acid]
- germination (thale cress; [6]): No germinations were observed

Structure (SMILES): CC(C)On1cccc1C(=O)O [Compound 6e, 1-Isopropoxy-1H-pyrrole-2-carboxylic acid]
- germination (thale cress; [6]): No germinations were observed

Structure (SMILES): CCCCOn1cccc1C(=O)O [Compound 6f, 1-Butoxy-1H-pyrrole-2-carboxylic acid]
- germination (thale cress; thale cress Col-0, concentration of 500 μM): substantially no germination was observed
- germination (thale cress; [6]): no germination was observed

Structure (SMILES): O=C(O)c1cccn1OCc1ccccc1 [Compound 6g, 1-(Benzyloxy)-1H-pyrrole-2-carboxylic acid]
- plant growth inhibition effect (activity on plant growth) (thale cress): a plant growth inhibiting effect was observed even more than when each of the compounds (6d) to (6f)

Structure (SMILES): COn1cccc1C(N)=O [Compound 7, 1-Methoxy-1H-pyrrole-2-carboxamide]
- twisting of root epidermal cells / abnormality in direction of root growth (thale cress): epidermal cells of the roots were twisted leftward and abnormality in a direction of the root growth was observed
- E. coli growth (OD600) (E. coli (DH5a strain); [5]): neither the compound (6a) nor the compound (7) inhibits the E. coli growth
- growth of Schizosaccharomyces pombe (OD600) [2]: neither the compound (6a) nor the compound (7) inhibits the growth
- effect on growth rate of HeLa cells (living cell counts) (HeLa cell [3]): no affect at all
- growth of Saccharomyces cerevisiae (OD600) [4]: neither the compound (6a) nor the compound (7) inhibits the growth

Structure (SMILES): COC(=O)Nc1nc2ccc(C(=O)c3cccs3)cc2[nH]1 [Nocodazole]
- viability of HeLa cells (relative survival rate) (HeLa cell [1]; final concentration 100 ng/ml): induced apoptosis

Structure (SMILES): C#CC(C)(C)NC(=O)c1cc(Cl)cc(Cl)c1 [Propyzamide, reference compound]
- twisting of root epidermal cells / abnormality in direction of root growth (thale cress): abnormality in a direction of the root growth was also observed

Structure (SMILES): CC1(C)S[C@@H]2[C@H](NC(=O)[C@H](N)c3ccccc3)C(=O)N2[C@H]1C(=O)O [ampicillin, reference compound]
- E. coli growth (OD600) (E. coli (DH5a strain); final concentration 50 μg/ml, control): growth inhibition was observed

Structure (SMILES): CN[C@@H]1C[C@H]2O[C@@](C)([C@@H]1OC)n1c3ccccc3c3c4c(c5c6ccccc6n2c5c31)C(=O)NC4 [staurosporine, reference compound]
- effect on HeLa cells (living cell counts) (HeLa cell [3]; final concentration 1 μM, control): induced the apoptosis
